Data published in ChEMBL document CHEMBL1142222, “A-803467, a potent and selective Nav1.8 sodium channel blocker, attenuates neuropathic and inflammatory pain in the rat” (Proc Natl Acad Sci U S A, 2007).

Assays:
[1] = test system: Rattus norvegicus; experiment: Analgesic activity in ip dosed rat chronic constriction injury model of mechanical allodynia; assay type: functional
[2] = biological target: Sodium channel protein type 10 subunit alpha (Rattus norvegicus, UniProt Q62968); experiment: Inhibition of Nav1.8 channel in rat dorsal root ganglion neurons assessed as blockade of TTX-R current by patch clamp method; assay type: tissue-based
Chain of Sodium channel protein type 10 subunit alpha (Q62968 whole entry): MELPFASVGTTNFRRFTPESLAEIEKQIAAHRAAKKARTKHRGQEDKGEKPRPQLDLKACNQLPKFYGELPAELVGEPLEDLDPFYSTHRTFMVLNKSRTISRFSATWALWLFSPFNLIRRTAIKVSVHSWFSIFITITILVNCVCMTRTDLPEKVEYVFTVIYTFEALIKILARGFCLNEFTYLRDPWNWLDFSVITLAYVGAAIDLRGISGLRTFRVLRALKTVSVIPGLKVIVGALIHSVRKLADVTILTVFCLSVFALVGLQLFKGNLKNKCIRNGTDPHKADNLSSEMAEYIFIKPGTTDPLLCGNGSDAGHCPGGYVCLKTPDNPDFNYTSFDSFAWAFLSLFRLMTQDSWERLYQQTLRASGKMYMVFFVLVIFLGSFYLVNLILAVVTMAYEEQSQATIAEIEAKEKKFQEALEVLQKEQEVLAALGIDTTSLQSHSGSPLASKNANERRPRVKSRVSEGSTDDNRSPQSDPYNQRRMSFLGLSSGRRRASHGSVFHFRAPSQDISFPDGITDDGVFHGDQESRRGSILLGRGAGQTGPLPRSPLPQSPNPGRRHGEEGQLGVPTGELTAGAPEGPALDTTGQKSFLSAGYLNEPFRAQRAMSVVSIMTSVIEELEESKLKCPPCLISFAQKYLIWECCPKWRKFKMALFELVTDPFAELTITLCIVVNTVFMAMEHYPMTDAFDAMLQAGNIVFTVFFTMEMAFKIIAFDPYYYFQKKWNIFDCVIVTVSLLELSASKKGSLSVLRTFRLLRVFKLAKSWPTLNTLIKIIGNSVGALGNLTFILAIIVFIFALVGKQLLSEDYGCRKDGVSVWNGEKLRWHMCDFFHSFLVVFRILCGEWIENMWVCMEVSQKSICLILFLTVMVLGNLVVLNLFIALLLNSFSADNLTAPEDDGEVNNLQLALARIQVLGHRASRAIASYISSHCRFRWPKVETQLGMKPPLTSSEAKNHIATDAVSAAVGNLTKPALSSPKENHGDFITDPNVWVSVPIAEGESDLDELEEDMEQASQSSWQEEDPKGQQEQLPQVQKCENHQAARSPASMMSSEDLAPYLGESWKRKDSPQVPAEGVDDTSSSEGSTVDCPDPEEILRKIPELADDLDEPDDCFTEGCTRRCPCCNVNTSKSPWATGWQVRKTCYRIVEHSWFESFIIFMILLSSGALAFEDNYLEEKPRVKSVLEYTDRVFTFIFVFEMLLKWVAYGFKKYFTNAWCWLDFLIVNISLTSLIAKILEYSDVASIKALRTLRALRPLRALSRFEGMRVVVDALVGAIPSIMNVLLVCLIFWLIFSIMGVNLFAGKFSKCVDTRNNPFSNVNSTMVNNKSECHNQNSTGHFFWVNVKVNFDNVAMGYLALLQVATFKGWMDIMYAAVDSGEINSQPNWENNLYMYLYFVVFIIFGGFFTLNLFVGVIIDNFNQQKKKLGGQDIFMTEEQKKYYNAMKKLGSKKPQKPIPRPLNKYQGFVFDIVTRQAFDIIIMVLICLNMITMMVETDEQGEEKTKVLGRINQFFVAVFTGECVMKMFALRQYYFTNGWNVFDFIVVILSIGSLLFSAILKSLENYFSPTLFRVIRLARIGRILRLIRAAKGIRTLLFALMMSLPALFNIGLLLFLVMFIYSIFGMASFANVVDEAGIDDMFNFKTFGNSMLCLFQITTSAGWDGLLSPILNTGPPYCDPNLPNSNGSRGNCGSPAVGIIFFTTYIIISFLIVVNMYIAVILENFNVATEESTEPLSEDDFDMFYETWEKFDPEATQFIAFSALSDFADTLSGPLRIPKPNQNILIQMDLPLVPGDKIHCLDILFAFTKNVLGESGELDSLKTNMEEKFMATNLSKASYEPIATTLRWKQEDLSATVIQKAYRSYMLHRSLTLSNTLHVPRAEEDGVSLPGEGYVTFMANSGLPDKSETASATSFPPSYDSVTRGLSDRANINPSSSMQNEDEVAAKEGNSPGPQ

SMILES: Nc1nnc(-c2cccc(Cl)c2Cl)c(N)n1 [LAMOTRIGINE]
- ED50 [1]: 20 mg/kg

SMILES: NCC1(CC(=O)O)CCCCC1 [GABAPENTIN]
- ED50 [1]: 40 mg/kg

SMILES: Cc1cccc(C)c1OCC(C)N (stereo not drawn) [MEXILETINE]
- IC50 [2]: > 30 µM
